The text below walks through data of EP4818159A1 (Kissei Pharmaceutical Co., Ltd., priority 2023, dated 2025).

Molecules are shown by their SMILES. Where only a bound is given, the exact number is not on record here.

T1 sequence (P16473 21-764): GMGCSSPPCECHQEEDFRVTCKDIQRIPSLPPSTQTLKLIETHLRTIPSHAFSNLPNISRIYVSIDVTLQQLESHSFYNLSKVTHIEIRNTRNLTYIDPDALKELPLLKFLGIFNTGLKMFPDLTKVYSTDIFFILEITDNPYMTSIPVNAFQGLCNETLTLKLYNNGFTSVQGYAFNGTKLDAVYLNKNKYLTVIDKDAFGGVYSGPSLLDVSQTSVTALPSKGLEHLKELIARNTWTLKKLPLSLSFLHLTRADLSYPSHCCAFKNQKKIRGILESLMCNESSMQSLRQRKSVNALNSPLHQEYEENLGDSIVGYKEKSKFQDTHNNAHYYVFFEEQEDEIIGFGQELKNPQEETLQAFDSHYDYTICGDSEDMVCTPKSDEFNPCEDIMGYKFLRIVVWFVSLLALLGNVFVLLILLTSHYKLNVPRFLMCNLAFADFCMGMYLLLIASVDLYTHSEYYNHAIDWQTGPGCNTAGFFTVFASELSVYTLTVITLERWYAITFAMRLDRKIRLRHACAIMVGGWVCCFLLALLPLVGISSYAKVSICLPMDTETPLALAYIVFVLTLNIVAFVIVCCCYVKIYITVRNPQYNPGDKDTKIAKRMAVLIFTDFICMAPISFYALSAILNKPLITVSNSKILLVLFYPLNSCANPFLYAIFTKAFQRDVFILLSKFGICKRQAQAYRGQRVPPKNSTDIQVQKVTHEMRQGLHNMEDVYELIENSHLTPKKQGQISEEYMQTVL

The test addresses T1, human TSHR (Homo sapiens, UniProt P16473).
T1 construct: expressed in transfected cells
Description: Antagonist activity using TSH-induced cAMP production in human TSHR-stably expressing CHO cells. As to conditions: human TSH final concentration of 50 ng/mL, cAMP production rate. It counts as cell-based. As to the method: Measurement of antagonist activity using TSH-induced cAMP production in human TSHR-stably expressing CHO cells as an indicator
The gene sequence (reference number NM_000369.2) of human TSHR was inserted into the multiple cloning site of pcDNA3.1(+). The prepared plasmid vector was introduced into CHO cells using a lipofection method to establish human TSHR-stably expressing CHO cells. The obtained cells were seeded at 5 x 10^4 cells/well in a 96-well poly-D-lysine-coated plate, and cultured in an F12 culture medium containing 10% FBS, 400 µg/mL of G418, 50 U/mL of penicillin and 50 µg/mL of streptomycin under conditions of 37°C and 5% CO2 for 1 day. The culture medium was removed, and the cells were then washed twice with 100 µL of an assay buffer (Hanks' Balanced Salt Solution containing 20 mM HEPES and 1 mM IBMX) per well. 30 µL of an assay buffer containing a test compound was added to the well, and incubation was performed at room temperature for 15 minutes. Then, 30 µL of an assay buffer containing human TSH (a final concentration of 50 ng/mL, R&D Systems, Inc.) was added, and incubation was performed at 37°C for 1 hour. The supernatant was removed, a Lysis and Detection Buffer 2 (Cisbio) was added, and incubation was performed at room temperature for 1 hour to prepare a cell lysate. According to the instruction manual of a cAMP Gs HiRange kit (Cisbio), the cell lysate, d2-labeled cAMP and anti-cAMP Europium Cryptate labeled antibodies (Cisbio) were reacted in a 384-well white microplate. Then, a fluorescence intensity ratio (measurement wavelength 665 nm/620 nm) was measured using a multi-plate reader (PHERAstar FSX, BMG LABTECH Japan). The fluorescence intensity ratio of each sample was converted to a cAMP content using a standard curve. The cAMP content was converted as a percentage of the control value to calculate a cAMP production rate. The cAMP production rate was plotted against the test compound concentration using Prism (Graph Pad Software Inc.) to calculate the IC50 value. In the tables, IC50<3.0 µM was indicated as A, and 3.0 µM≤IC50<30 µM was indicated as B. If activity was observed but the IC50 value could not be calculated, it was indicated as C.
(In general: Changes in cAMP serve as a functional read-out for many G protein-coupled receptors.)
On to `Cc1ccc2cc(NC(N)=O)c(=O)n(C)c2c1Oc1cc(F)ccc1Cl` [Example 31, 1-(8-(2-chloro-5-fluorophenoxy)-1,7-dimethyl-2-oxo-1,2-dihydroquinoline-3-yl)urea], for which the IC50 was > 30 µM. `CN1C(=O)[C@H](NC(N)=O)Cc2cccc(CCc3ccccc3)c21` [Example 35, (R)-1-(1-methyl-2-oxo-8-phenethyl-1,2,3,4-tetrahydroquinoline-3-yl)urea] displayed an IC50 of 3 to 30 µM. The same measure for `CN1C(=O)C(NC(N)=O)Cc2cc(NC(=O)OC3(C)CC3)cc(Oc3cccc(C(F)(F)F)n3)c21` (stereo not shown) [Example 8, 1-methylcyclopropyl (1-methyl-2-oxo-8-((6-(trifluoromethyl)pyridin-2-yl)oxy)-3-ureido-1,2,3,4-tetrahydroquinoline-6-yl)carbamate]: < 3 µM. The same measure for `CN1C(=O)[C@H](N2CCNC2=O)Cc2cccc(Oc3cc(F)ccc3Cl)c21` [Example 24, (R)-8-(2-chloro-5-fluorophenoxy)-1-methyl-3-(2-oxoimidazolidine-1-yl)-3,4-dihydroquinoline-2(1H)-one]: 3 to 30 µM; for `CN1C(=O)[C@H](NC(N)=O)Cc2sc(Br)c(Cc3cc(F)ccc3Cl)c21` [Example 39, (R)-1-(2-bromo-3-(2-chloro-5-fluorobenzyl)-4-methyl-5-oxo-4,5,6,7-tetrahydrothieno[3,2-b]pyridin-6-yl)urea]: < 3 µM.

For the compound `CC1(c2ccccc2)C(=O)C(C)(C)N2C(=O)[C@H](NC(N)=O)Cc3cccc1c32` (stereo partly drawn) [Example 17, 1-((2R)-5,5,7-trimethyl-3,6-dioxo-7-phenyl-2,3,6,7-tetrahydro-1H,5H-pyrido[3,2,1-ij]quinoline-2-yl)urea], the IC50 was < 3 µM. Regarding `CC1(c2ccccc2)CC(C)(C)N2C(=O)[C@H](NC(N)=O)Cc3cccc1c32` (stereo partly drawn) [Example 15, 1-((2R)-5,5,7-trimethyl-3-oxo-7-phenyl-2,3,6,7-tetrahydro-1H,5H-pyrido[3,2,1-ij]quinolin-2-yl)urea], the IC50 is < 3 µM.

As to `CN1C(=O)[C@H](NC(N)=O)Cc2sc(C#N)c(Cc3cc(F)ccc3Cl)c21` [Example 40, (R)-1-(3-(2-chloro-5-fluorobenzyl)-2-cyano-4-methyl-5-oxo-4,5,6,7-tetrahydrothieno[3,2-b]pyridin-6-yl)urea], the IC50 is < 3 µM.

For `Cc1sc2c(c1Cc1cc(F)ccc1Cl)N(C)C(=O)[C@H](NC(N)=O)C2` [Example 38, (R)-1-(3-(2-chloro-5-fluorobenzyl)-2,4-dimethyl-5-oxo-4,5,6,7-tetrahydrothieno[3,2-b]pyridin-6-yl)urea], the IC50 was < 3 µM. Take `CN1C(=O)C(NC(N)=O)Cc2cccc(C(C)(C)c3ccccc3)c21` (stereo not shown) [Example 14, 1-(1-methyl-2-oxo-8-(2-phenylpropan-2-yl)-1,2,3,4-tetrahydroquinoline-3-yl)urea]: the IC50 is 3 to 30 µM. The same measure for `CN1C(=O)C(OC(N)=O)Cc2cccc(Oc3cc(F)ccc3Cl)c21` (stereo not shown) [Example 26, 8-(2-chloro-5-fluorophenoxy)-1-methyl-2-oxo-1,2,3,4-tetrahydroquinoline-3-yl carbamate]: < 3 µM. As to `CN1C(=O)[C@H](NC(N)=O)Cc2cccc(C(=O)c3ccccc3Cl)c21` [Example 11, (R)-1-(8-(2-chlorobenzoyl)-1-methyl-2-oxo-1,2,3,4-tetrahydroquinoline-3-yl)urea], the IC50 is < 3 µM. `Cc1ccc2c(c1Oc1cc(F)ccc1Cl)N(C)C(=O)[C@H](NC(=O)c1ccccc1)C2` [Example 20, (R)-N-(8-(2-chloro-5-fluorophenoxy)-1,7-dimethyl-2-oxo-1,2,3,4-tetrahydroquinoline-3-yl)b enzamide]: the 50% inhibitory concentration (IC50) was < 3 µM. As for `CN1C(=O)C(NC(N)=O)Cc2cc(NC(=O)OCC3CC3)cc(Oc3cccc(C(F)(F)F)n3)c21` (stereo not shown) [Example 7, cyclopropylmethyl (1-methyl-2-oxo-8-((6-(trifluoromethyl)pyridin-2-yl)oxy)-3-ureido-1,2,3,4-tetrahydroquinoline-6-yl)carbamate], the figure is < 3 µM; as for `CN1C(=O)[C@H](NC2=NC(=O)CN2)Cc2cccc(Oc3cc(F)ccc3Cl)c21` [Example 33, (R)-8-(2-chloro-5-fluorophenoxy)-1-methyl-3-((4-oxo-4,5-dihydro-1H-imidazole-2-yl)amino)-3,4-dihydroquinoline-2(1H)-one], 3 to 30 µM; as for `Cc1ccc2c(c1Oc1cc(F)ccc1Cl)N(C)C(=O)[C@H](NC(N)=O)[C@H]2O` (relative stereo) [Example 21, 1-((3R^*,4S^*)-8-(2-chloro-5-fluorophenoxy)-4-hydroxy-1,7-dimethyl-2-oxo-1,2,3,4-tetrahydroquinoline-3-yl)urea], < 3 µM. As to `C=C(c1ccccc1Cl)c1cccc2c1N(C)C(=O)[C@H](NC(N)=O)C2` [Example 13, (R)-1-(8-(1-(2-chlorophenyl)vinyl)-1-methyl-2-oxo-1,2,3,4-tetrahydroquinoline-3-yl)urea], the IC50 is < 3 µM. Turning to `Cc1cnc2n1-c1c(cccc1Oc1cc(F)ccc1Cl)CC2NC(N)=O` (stereo not shown) [Example 29, 1-(9-(2-chloro-5-fluorophenoxy)-1-methyl-4,5-dihydroimidazo[1,2-a]quinolin-4-yl)urea], the IC50 is 3 to 30 µM.

Turning to `COC(=O)N[C@@H]1Cc2cccc(Oc3cc(F)ccc3Cl)c2N(C)C1=O` [Example 22, methyl (R)-(8-(2-chloro-5-fluorophenoxy)-1-methyl-2-oxo-1,2,3,4-tetrahydroquinoline-3-yl)carbamate], the IC50 is < 3 µM. As for `CC(C)OC(=O)Nc1cc2c(c(Oc3cccc(C(F)(F)F)n3)c1)N(C)C(=O)C(NC(N)=O)C2` (stereo not shown) [Example 9, isopropyl (1-methyl-2-oxo-8-((6-trifluoromethylpyridin-2-yl)oxy)-3-ureido-1,2,3,4-tetrahydroquinoline-6-yl)carbamate], the figure is < 3 µM; as for `NC(=O)NC1Cc2cccc(Oc3cc(F)ccc3Cl)c2-n2ccnc21` (stereo not shown) [Example 28, 1-(9-(2-chloro-5-fluorophenoxy)-4,5-dihydroimidazo[1,2-a]quinoline-4-yl)urea], 3 to 30 µM.

Turning to `CN1C(=O)[C@H](NC(N)=O)Cc2cccc(OCc3ccccc3)c21` [Example 18, (R)-1-(8-(benzyloxy)-1-methyl-2-oxo-1,2,3,4-tetrahydroquinoline-3-yl)urea], the IC50 is > 30 µM.

With `CC(c1cc(F)ccc1Cl)c1nsc2c1N(C)C(=O)[C@H](NC(N)=O)C2` (stereo partly drawn) [Example 43, 1-((6R)-3-(1-(2-chloro-5-fluorophenyl)ethyl)-4-methyl-5-oxo-4,5,6,7-tetrahydroisothiazolo[4 ,5-b]pyridine-6-yl)urea], the 50% inhibitory concentration (IC50) is < 3 µM. The same measure for `CC1(c2ccccc2)CCN2C(=O)[C@H](NC(N)=O)Cc3cccc1c32` (stereo partly drawn) [Example 16, 1-((2R)-7-methyl-3-oxo-7-phenyl-2,3,6,7-tetrahydro-1H,5H-pyrido[3,2,1-ij]quinoline-2-yl)ur ea]: 3 to 30 µM; for `CN1C(=O)[C@H](NC(N)=O)Cc2csc(Cc3cc(F)ccc3Cl)c21` [Example 36, (R)-1-(7-(2-chloro-5-fluorobenzyl)-1-methyl-2-oxo-1,2,3,4-tetrahydrothieno[3,4-b]pyridine-3-yl)urea]: < 3 µM. As for `CN1C(=O)[C@H](NS(N)(=O)=O)Cc2cccc(Oc3cc(F)ccc3Cl)c21` [Example 23], the figure is < 3 µM. For the compound `CN1C(=O)[C@H](Nc2ncc[nH]2)Cc2cccc(Oc3cc(F)ccc3Cl)c21` [Example 34, (R)-3-((1H-imidazole-2-yl)amino)-8-(2-chloro-5-fluorophenoxy)-1-methyl-3,4-dihydroquinoline-2(1H)-one], the IC50 lay in the range of 3 to 30 µM. The same measure for `C[C@H](OC(=O)Nc1cc2c(c(Oc3cccc(C(F)(F)F)n3)c1)N(C)C(=O)C(NC(N)=O)C2)C(F)(F)F` (stereo partly drawn) [Example 6, (S)-1,1,1-trifluoropropan-2-yl (1-methyl-2-oxo-8-((6-trifluoromethylpyridin-2-yl)oxy)-3-ureido-1,2,3,4-tetrahydroquinoline-6-yl)carbamate]: < 3 µM; for `Cc1ccc2c(c1Oc1cc(F)ccc1Cl)N(C)C(=O)C1(NC(N)=O)CC21` (stereo not shown) [Example 32, 1-(4-(2-chloro-5-fluorophenoxy)-3,5-dimethyl-2-oxo-1,2,3,7b-tetrahydro-1aH-cyclopropa[c]quinoline-1a-yl)urea]: 3 to 30 µM. As for `CN1C(=O)C(NC(N)=O)Cc2cc(NC(=O)OC3CCCC3)cc(Oc3ccccc3C#N)c21` (stereo not shown) [Example 4, cyclopentyl (8-(2-cyanophenoxy)-1-methyl-2-oxo-3-ureido-1,2,3,4-tetrahydroquinoline-6-yl)carbamate], the figure is < 3 µM; as for `CN1C(=O)C(CNC(N)=O)Cc2cccc(Oc3ccccc3)c21` (stereo not shown) [Example 10, 1-((1-methyl-2-oxo-8-phenoxy-1,2,3,4-tetrahydroquinoline-3-yl)methyl)urea], 3 to 30 µM.

By IC50 is commonly meant the point on the concentration scale where inhibition reaches its midpoint. A higher IC50 goes with weaker potency.
